Experiments:
Mus musculus [1] = experiment: Percent recovery of tyrosine hydroxylase immunostaining after oral administration at dose 10 mg/kg concurrently with MPTP; assay type: functional, organism-based; set-up: dose 10 mg/kg
Gallus gallus = species: Gallus gallus; experiment: In vitro promotion of fiber extension (neurite outgrowth) from cultured chick sensory neuron; assay type: functional; conditions: read-out: ED50 (the source's name)
Mus musculus [2] = experiment: Percent recovery of tyrosine hydroxylase immunostaining in mice following 10 mg/kg p.o. administration after lesioning with MPTP.; assay type: functional, organism-based; set-up: dose 10 mg/kg; conditions: at 10 mg/kg
[3] = molecular target: Peptidyl-prolyl cis-trans isomerase FKBP1A (Homo sapiens, UniProt P62942); experiment: Inhibitory activity against FK506 binding protein 12
Sequence of Peptidyl-prolyl cis-trans isomerase FKBP1A (P62942 whole entry): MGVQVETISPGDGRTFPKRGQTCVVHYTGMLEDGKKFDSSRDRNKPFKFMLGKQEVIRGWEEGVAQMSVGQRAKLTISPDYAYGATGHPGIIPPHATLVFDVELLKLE

Mus musculus [4] = experiment: Percent recovery of tyrosine hydroxylase immunostaining after oral administration at dose 10 mg/kg after lesioning with MPTP (post-MPTP); assay type: functional, organism-based; set-up: dose 10 mg/kg
Mus musculus [5] = experiment: Percent recovery of tyrosine hydroxylase immunostaining after peroral administration at dose 10 mg/kg after lesioning with MPTP (post-MPTP); assay type: functional, organism-based; set-up: dose 10 mg/kg
Mus musculus [6] = experiment: Percent recovery of vtyrosine hydroxylase immunostaining after oral administration at dose 10 mg/kg after lesioning with MPTP (post-MPTP); assay type: functional, organism-based; set-up: dose 10 mg/kg

O=C(C(=O)N1CCC[C@H]1C(=O)SCCCc1ccccc1)C1CCCCC1
Recovery (Mus musculus [1]): 52%

CCC(C)(C)C(=O)C(=O)N1CCC[C@H]1C(=O)SCCCc1ccc(OC)cc1
EC50 (Gallus gallus): 0.01 nM

CCC(C)(C)C(=O)C(=O)N1CCCC[C@H]1C(=O)NCCCCCc1ccccc1
Recovery (Mus musculus [2]): 37.4%

CCC(C)(C)C(=O)C(=O)N1CCC[C@H]1C(=O)NCCCCc1ccccc1
Recovery (Mus musculus [2]): 50.1%

CCC(C)(C)C(=O)C(=O)N1CCC[C@H]1C(=O)NCCCc1cccnc1
Ki [3]: 820 nM
Recovery (Mus musculus [2]): 4.7%

CCC(C)(C)C(=O)C(=O)N1CCCC[C@H]1C(=O)NCCC(c1ccccc1)c1ccccc1
Ki [3]: 420 nM
Recovery (Mus musculus [2]): 41.9%

CCC(C)(C)C(=O)C(=O)N1CCC[C@H]1C(=O)SCCC(c1ccccc1)c1ccccc1
Recovery (Mus musculus [1]): 39%
Recovery (Mus musculus [4]): 37%

CCC(C)(C)C(=O)C(=O)N1CCC[C@H]1C(=O)NCCc1ccccc1
Recovery (Mus musculus [2]): 44.1%

CCC(C)(C)C(=O)C(=O)N1CCCC[C@H]1C(=O)NCCCCc1ccccc1
Recovery (Mus musculus [2]): 54.1%

CCC(C)(C)C(=O)C(=O)N1CCC[C@H]1C(=O)N(C)CCCc1ccccc1
Recovery (Mus musculus [2]): 20.5%

CCC(C)(C)C(=O)C(=O)N1CCC[C@H]1C(=O)OCCCc1cccnc1 [GPI-1046]
EC50 (Gallus gallus): 0.06 nM
Recovery (Mus musculus [1]): 43%
Recovery (Mus musculus [5]): 35%

CCC(C)(C)C(=O)C(=O)N1CCC[C@H]1C(=O)SCCc1ccccc1
Recovery (Mus musculus [2]): 31.4%
EC50 (Gallus gallus): 0.77 nM
Recovery (Mus musculus [1]): 66%

CCC(C)(C)C(=O)C(=O)N1CCC[C@H]1C(=O)SCCCc1ccccc1
EC50 (Gallus gallus): < 0.01 nM
Recovery (Mus musculus [1]): 72%

CCC(C)(C)C(=O)C(=O)N1CCC[C@H]1C(=O)SCCCc1cccnc1
Recovery (Mus musculus [1]): 31%

CCC(C)(C)C(=O)C(=O)N1CCCC[C@H]1C(=O)SCCCc1ccccc1
Recovery (Mus musculus [6]): 30%

CCC(C)(C)C(=O)C(=O)N1CCCC[C@H]1C(=O)SCCC(c1ccccc1)c1ccccc1
Recovery (Mus musculus [2]): 72%
Recovery (Mus musculus [1]): 81%

CCC(C)(C)C(=O)C(=O)N1CCCC[C@H]1C(=O)SCCc1ccccc1
Recovery (Mus musculus [1]): 73%

CCC(C)(C)C(=O)C(=O)N1CCC[C@H]1C(=O)SCCCCc1ccccc1
Recovery (Mus musculus [1]): 48%

CCC(C)(C)C(=O)C(=O)N1CCC[C@H]1C(=O)SCCCc1ccc2ccccc2c1
Recovery (Mus musculus [1]): 36%
Recovery (Mus musculus [4]): 10%

O=C(C(=O)N1CCC[C@H]1C(=O)SCCc1ccccc1)C1CCCC1
Recovery (Mus musculus [1]): 41%

CC(C)(C)C(=O)C(=O)N1CCCC[C@H]1C(=O)NCCCCc1ccccc1
Recovery (Mus musculus [2]): 44.9%

CCC(C)(C)C(=O)C(=O)N1CCCC[C@H]1C(=O)NCCCc1ccccc1
Recovery (Mus musculus [2]): 65.3%

CCC(C)(C)C(=O)C(=O)N1CCC[C@H]1C(=O)NCCCc1ccc(O)cc1
Recovery (Mus musculus [2]): 1.8%

CCC(C)(C)C(=O)C(=O)N1CCC[C@H]1C(=O)SCCCc1ccc(C(F)(F)F)cc1
Recovery (Mus musculus [1]): 71%
Recovery (Mus musculus [4]): 34%

CCC(C)(C)C(=O)C(=O)N1CCC[C@H]1C(=O)NC(CCc1ccccc1)CCc1ccccc1
Recovery (Mus musculus [2]): 6.9%

CCC(C)(C)C(=O)C(=O)N1CCCC[C@H]1C(=O)NCCCCc1cccnc1
Recovery (Mus musculus [2]): 29.4%

CCC(C)(C)C(=O)C(=O)N1CCCC[C@H]1C(=O)NC
Recovery (Mus musculus [2]): 31.6%

O=C(C(=O)N1CCCC[C@H]1C(=O)NCCCCc1ccccc1)c1ccccc1
Recovery (Mus musculus [2]): 18.7%

CCC(C)(C)C(=O)C(=O)N1CCC[C@H]1C(=O)NC
Recovery (Mus musculus [2]): 16.1%

CC(C)(C)C(=O)C(=O)N1CCC[C@H]1C(=O)NCCCc1ccccc1
Recovery (Mus musculus [2]): 28.1%

CCC(C)(C)C(=O)C(=O)N1CCC[C@H]1C(=O)NCCCc1ccccc1
Ki [3]: 1100 nM
Recovery (Mus musculus [4]): 39%

CCC(C)(C)C(=O)C(=O)N1CCCC[C@H]1C(=O)NCCCCc1ccc(O)cc1
Recovery (Mus musculus [2]): 60.4%

— ChEMBL document CHEMBL1135538, “Synthesis of N-glyoxyl prolyl and pipecolyl amides and thioesters and evaluation of their in vitro and in vivo nerve regenerative effects” (J Med Chem, 2002)
